Experimental data taken from article PMC8899820, “Pharmacokinetics, Tissue Distribution, and Excretion Characteristics of a Radix Polygoni Multiflori Extract in Rats” (Frontiers in Pharmacology, 2022).
Like-named read-outs stand apart in the source and are kept apart here.

How the values were obtained:
[1] = rat, in vivo, po
Excerpt: (§1) For the pharmacokinetic (PK) study, three groups (n = 6 each) of rats were orally administered RPM extract (6, 18, and 36 g/kg). In the plasma pharmacokinetics experiment, doses were 6, 18, and 36 g/kg for the single administration group and 18 g/kg for the continuous administration group. The doses were set at a subtoxic level ([Zhang et al., 2013]; [Wang et al., 2015]) to investigate the pharmacokinetic profiles of the constituents of RPM (36 g/kg group) and were approximately 60 times the upper dose (6 g/day) for humans recommended by the 2020 edition of Chinese Pharmacopoeia ([Chinese Pharmacopoeia Commission, 2020]), which was converted to a dose for rats based on body surface area conversion ([Reagan-Shaw et al., 2008]). In addition, the low and medium doses decreased in a certain proportion. Serial blood samples (∼120 μL; before dosing and at 5, 15, and 30 min, and 1, 2, 4, 6, 8, 12, and 24 h after administration) were collected in heparinized tubes from the orbital sinus under light isoflurane. The blood samples were centrifuged at 12000 g for 2 min, and the plasma fractions were decanted and frozen at −70°C until analysis.
(§2) Samples were prepared using the protein precipitation process. Rat plasma (50 μL) spiked with 10 μL of IS (puerarin 100 ng/ml) was extracted with 150 μL acetonitrile. After vortex shaking for 5 min and centrifugation at 14,000 g for 5 min, 150 μL of the organic layer was transferred to a clean tube and evaporated to dryness at 25°C under a stream of nitrogen. The residue was reconstituted in 50 μL of the initial mobile phase and subjected to another round of centrifugation at 14,000 g for 5 min, and 5 μL of the supernatant was injected for LC–MS/MS analysis.
(§3) The analysis was performed on an AB Sciex API 5500 Q Trap mass spectrometer (Toronto, Canada), interfaced with a Waters Acquity UPLC separation module.
(§4) The pharmacokinetic parameters, including the area under the plasma concentration-time curve from time zero to time t (AUC0-t) to time infinity (AUC0-∞), the time to reach the maximum plasma concentration (T max), the elimination half-time (t 1/2), and the maximum plasma concentration (C max), were calculated using the pharmacokinetic software Phoenix® WinNonlin®, version 7.0 (Scientific Consulting Inc., Apex, NC, United States). Data are expressed as the mean ± standard deviation (SD) for each group. The dose-exposure relationship was evaluated by the power function model combined with the confidence interval method ([Smith et al., 2000]; [Sethuraman et al., 2007]; [Hummel et al., 2009]). First, the administration dose, AUC0-∞ and C max were logarithmically transformed, and then a linear regression was performed to obtain the curve correlation coefficient (R^2), slope and 90% confidence interval (90% CI).

[2] = rat, in vivo
Description: as §4

in vivo [3] = settings: Sprague-Dawley, rat, po
Excerpt: as §1, §2, §3, §4

in vivo [4] = settings: Sprague-Dawley, rat, po, 18 g/kg
Description: For the tissue distribution study, 18 rats were randomly divided into three groups (n = 6, each) and orally administered 18 g/kg RPM extract. The rats under isoflurane anesthesia were sacrificed by bleeding from the abdominal aorta at 5, 15, and 60 min (six rats per time point) after gavage with 18 g/kg RPM extract. Subsequently, the heart, liver, spleen, lung, kidney, brain, stomach, small intestine, bladder, and gonads (testes of male rats, and uterus and ovaries of female rats) were immediately collected. An accurately weighed amount of fresh tissue sample (0.25 g) was individually homogenized with normal saline (1 ml) and transferred (50 μL) as a tissue homogenate to 1.5 ml centrifuge tubes for use as the tissue samples. All tissue samples were stored at −70°C until analysis.
Samples were prepared using the protein precipitation process. […] The tissue samples were homogenized in four parts of ice-cold 0.9% saline solution and then centrifuged at 4°C and 12,000 × g for 10 min to obtain tissue homogenates. […] Tissue homogenate, urine, bile and fecal samples were subjected to a similar process as the rat plasma samples.
For the tissue distribution study, 18 rats were randomly divided into three groups (n=6, each), and orally administered with 18 g/kg RPM extract. The rats were sacrificed at 5, 15, 60 min after orally administering RPM. Subsequently, the heart, liver, spleen, lung, kidney, brain, stomach, small intestine, bladder, gonad (testes of male rats, uterus and ovaries of female rats) were immediately collected. An accurately weighed amount of fresh tissue sample (0.25 g) was individually homogenized with normal saline (1 mL) and transferred (50 μL) as a tissue homogenate to 1.5 mL centrifuge tubes for use as the tissue samples.

[5] = rat, in vivo, po, 36 g/kg; cited from earlier work

## O=C1c2cc(O)cc(O)c2C(=O)c2c(O)cc(CO)cc21 [Citreorosein]
[1]
  time at which C max was exhibited: ≤ 20 min
[2]
  Conclusion (dose-exposure relationship): Uncertainty of linear relationship
In vivo [3]; 6 g/kg
  AUC(0-inf): 0.0961 ± 0.0171 µM·h
  AUC(0-t): 0.0872 ± 0.0215 µM·h
  Cmax: 41.2 ± 8.8 nM
  MRT inf: 6.87 ± 1.42 h
  Tmax: 0.25 h
  half-life: 5.07 ± 1.32 h
In vivo [3]; 18 g/kg
  AUC(0-inf): 0.558 ± 0.499 µM·h
  AUC(0-t): 0.416 ± 0.251 µM·h
  Cmax: 349 ± 216 nM
  MRT inf: 5.69 ± 1.57 h
  half-life: 3.78 ± 0.75 h
In vivo [4]; both, AUC0-t in bladder
  AUC(0-t): 0.0604 µM·h
In vivo [4]; both, AUC0-t in brain
  AUC(0-t): 0.00583 µM·h
In vivo [4]; both, AUC0-t in heart
  AUC(0-t): 0.65 µM·h
In vivo [4]; both, AUC0-t in intestine
  AUC(0-t): 0.211 µM·h
In vivo [4]; both, AUC0-t in kidney
  AUC(0-t): 0.587 µM·h
In vivo [4]; both, AUC0-t in liver
  AUC(0-t): 1.6 µM·h
In vivo [4]; both, AUC0-t in lung
  AUC(0-t): 0.58 µM·h
In vivo [4]; both, AUC0-t in spleen
  AUC(0-t): 0.873 µM·h
In vivo [4]; both, AUC0-t in stomach
  AUC(0-t): 0.783 µM·h
In vivo [4]; female, AUC0-t in ovary
  AUC(0-t): 0.227 µM·h
In vivo [4]; female, AUC0-t in uterus
  AUC(0-t): 0.104 µM·h
In vivo [4]; male, AUC0-t in testis
  AUC(0-t): 0.0137 µM·h
[5]
  AUC0-∞: 0.468 ± 0.337 µM·h
  AUC(0-t): 0.458 ± 0.338 µM·h
  Cmax: 521 ± 512 nM
